The values that follow come from patent publication US7172865B2, “Rapid and sensitive assay for the detection and quantification of coregulators of nucleic acid binding factors” (Saint Louis University, priority 2001, dated 2007).

Assay [1] deals with LacR binding site split between LAC1/LAC4 and LAC2/LAC3. Briefly: detection of Lac repressor protein by fluorescence quenching. The text has this:
The LAC1 oligonucleotide (SEQ ID NO:12) was hybridized with the LAC4 oligonucleotide (SEQ ID NO:15) to generate the LAC1/LAC4 construct and the LAC2 oligonucleotide (SEQ ID NO:13) was hybridized with the LAC3 oligonucleotide (SEQ ID NO:14) to generate the LAC2/LAC3 construct.

A further assay addresses LacR protein (Escherichia coli, UniProt P03023). Briefly: IPTG biosensor. The class given is binding. Conditions: 50 nM and 60 nM components, 2 hrs. The method, then:
FIG. 24 describes a biosensor for detecting IPTG. Increasing concentrations of IPTG were added to a mixture containing 50 nM fluorescein-labeled LacR-specific first nucleic acid component and 60 nM dabcyl-labeled Lac-specific second nucleic acid component.
FIG. 24 illustrates a biosensor design using a nucleic acid binding factor for which the coregulator reduced its affinity for a specific nucleic acid element. In this case, the coregulator will induce the dissociation of the protein-nucleic acid complex and its detection could be accomplished by coregulator-dependent disappearance of protein-nucleic acid complex. […] In the absence of IPTG (a coregulator for LacR) the LacR protein bound to its labeled cognate nucleic acid element resulting in quenching of the fluorescence signal.

Another assay concerns the target CAP protein (Escherichia coli, UniProt P0ACJ8). Conditions: cited from earlier work.
Assay [2] deals with T1, TrpR (Escherichia coli, UniProt P0A881). Briefly: tryptophan biosensor, fluorescence intensity. Conditions: 250 nM and 300 nM components, 2 hrs. In kind it is binding. The procedure:
Increasing concentrations of tryptophan were added to a mixture containing 250 nM fluorescein labeled TrpR-specific first nucleic acid component and 300 nM dabcyl-labeled Trp-specific second nucleic acid component.

Assay [3] deals with T1, TrpR. As to the kind of experiment: tryptophan biosensor, fluorescence polarization. The class given is binding. Conditions: 4 nM fluorescein-labeled 25 bp duplex. The procedure: Increasing concentrations of tryptophan were added to a mixture containing 4 nM fluorescein-labeled 25 bp DNA duplex containing consensus TrpR binding sites.
To illustrate that a different detection methodology for measuring the formation of nucleic acid-protein complexes could be accommodated to the biosensor design shown in FIG. 20, a biosensor for tryptophan was prepared wherein only one nucleic acid component was attached to a detectable label. According to this particular embodiment of the invention, fluorescence polarization of fluorochrome-labeled DNA component containing a TrpR cognate binding site was used to measure tryptophan-induced formation of a TrpR-nucleic acid complex (FIG. 23).
For orientation: In fluorescence polarisation assays a small probe gives low polarisation when free and higher when bound to something large.

Assay [4] has as its system TrpR binding site split between TRP1/TRP4 and TRP2/TRP3. Conditions: 250 nM TRP1/TRP4 and 300 nM TRP2/TRP3, 4 mM tryptophan.
Experimental: The TRP1 oligonucleotide (SEQ ID NO:16) was hybridized with the TRP4 oligonucleotide (SEQ ID NO:19) to generate the TRP1/TRP4 construct and the TRP2 oligonucleotide (SEQ ID NO:17) was hybridized with the TRP3 oligonucleotide (SEQ ID NO:18) to generate the TRP2/TRP3 construct. For the hybridization, the appropriate oligonucleotides were mixed at 10 μM concentration in 100 μl of 50 mM Tris/HCl (pH 8.0), 100 mM NaCl, 1 mM EDTA, heated for 1 min at 95° C. and then cooled to 25° C. for 1 hr. All subsequent fluorescence measurements were performed at 15° C. in 10 mM potassium phosphate (pH 7.6), 50 mM NaCl, 0.1 mM EDTA, 4mM tryptophan, 10% glycerol, 0.01% sodium azide and 1.0 mg/ml BSA. […] The duplexes contain a TrpR binding site (underlined sequence) split between each of the two double stranded constructs.
The fluorescence spectra of 250 nM TRP1/TRP4 and 300 nM TRP2/TRP3 were recorded in the absence of TrpR (FIG. 16A, curve 1) and in the presence of varying amounts of TrpR in a range from 0–800 nM (FIG. 16A, curves 2–5). ).

Sequence of CAP protein (P0ACJ8 2-210): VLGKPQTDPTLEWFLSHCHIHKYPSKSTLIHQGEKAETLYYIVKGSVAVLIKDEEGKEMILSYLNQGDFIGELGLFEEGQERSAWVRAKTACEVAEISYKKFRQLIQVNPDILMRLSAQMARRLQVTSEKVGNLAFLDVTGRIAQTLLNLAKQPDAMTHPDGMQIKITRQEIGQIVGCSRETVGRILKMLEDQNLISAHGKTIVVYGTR

With `CC(C)S[C@@H]1O[C@H](CO)[C@H](O)[C@H](O)[C@H]1O` [IPTG, reference compound], the “effect on LacR nucleic acid binding activity” value in assay [1] (5 mM IPTG) is on record as “reduces its nucleic acid binding activity”. Besides, the “fluorescence signal response to IPTG” value on LacR protein is “IPTG-dependent increase in fluorescence signal”.

As to `Nc1nc2c(ncn2[C@@H]2O[C@@H]3COP(=O)(O)O[C@H]3[C@H]2O)c(=O)[nH]1` [cGMP], at CAP protein (CAP alone), the “affinity of CAP for the cyclic nucleotide” value is reported as “micromolar affinity”. For the same molecule, at CAP protein, the “change of affinity of CAP for the nucleotide in the presence of DNA containing a CAP binding site” value is recorded as “remains unchanged”.

On to `N[C@@H](Cc1c[nH]c2ccccc12)C(=O)O` [tryptophan], for which the “fluorescence signal response to tryptophan” value on TrpR [2] was “large fluorescence signal change”. Further, on TrpR [3], the “fluorescence polarization response to tryptophan” value was “change of fluorescence polarization signal proportional to tryptophan concentration”.

B1: LacR: Lac repressor protein, nucleic acid binding reduced by IPTG (protein, UniProt P03023 1-360, looked up)
Lactose operon repressor: MKPVTLYDVAEYAGVSYQTVSRVVNQASHVSAKTREKVEAAMAELNYIPNRVAQQLAGKQSLLIGVATSSLALHAPSQIVAAIKSRADQLGASVVVSMVERSGVEACKAAVHNLLAQRVSGLIINYPLDDQDAIAVEAACTNVPALFLDVSDQTPINSIIFSHEDGTRLGVEHLVALGHQQIALLAGPLSSVSARLRLAGWHKYLTRNQIQPIAEREGDWSAMSGFQQTMQMLNEGIVPTAMLVANDQMALGAMRAITESGLRVGADISVVGYDDTEDSSCYIPPLTTIKQDFRLLGQTSVDRLLQLSQGQAVKGNQLLPVSLVKRKTTLAPNTQTASPRALADSLMQLARQVSRLESGQ
B1: the “protein concentration at saturation of quenching” value in assay [1] (50 nM LAC1/LAC4 plus LAC2/LAC3) and in assay [4] was “approximately 150 nM” throughout.
